Series [1] has as its target T1, human chemokine receptor CCR-3 (Homo sapiens, UniProt P51677).
T1 construct: expressed in transfected cells; host or cells: K562 cell line (membranes)
T1 sequence (P51677 1-355): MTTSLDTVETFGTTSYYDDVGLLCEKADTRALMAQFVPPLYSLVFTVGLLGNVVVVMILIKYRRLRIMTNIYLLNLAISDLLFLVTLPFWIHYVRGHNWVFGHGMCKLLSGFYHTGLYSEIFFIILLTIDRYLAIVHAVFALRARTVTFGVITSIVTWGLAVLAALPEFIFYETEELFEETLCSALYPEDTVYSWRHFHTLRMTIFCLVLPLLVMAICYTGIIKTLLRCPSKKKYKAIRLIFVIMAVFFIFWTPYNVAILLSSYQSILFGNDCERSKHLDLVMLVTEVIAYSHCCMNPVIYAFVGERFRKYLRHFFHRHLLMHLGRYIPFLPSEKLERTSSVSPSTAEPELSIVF
In words: CCR-3 receptor binding assay (SPA) with 125Jodine-eotaxin-1. The note with it: membranes of hCCR-3 transfected K562 cells, radioligand 125J rhEotaxin, 2 hours incubation; read-out: Binding constants Ki (Eotaxin at CCR-3-Rezeptor). On the procedure: The CCR-3 receptor binding test is based on a K562 cell line (leukemia myelogenic blast cells) transfected with the human chemokine receptor CCR-3 (hCCR-3-Cl). The cell membranes were prepared by disrupting the hCCR-3 transfected K562 cells by nitrogen […] and centrifugation at 40000 g, 4° C. for 1 h. The membranes were re-suspended in the SPA incubation buffer without bovine serum albumin for storage in aliquots at −80° C.
The CCR-3 receptor binding assay with the radioligand ^125Jodine-eotaxin-1 was performed in a Scintillation Proximity Assay (SPA) design. Cell membranes of hCCR-3 Cl cells were diluted in suitable concentrations (0.5–5 ug protein/well) in 96 well microtiter plates (1450–401, Wallac).
The test incubation mixture comprising 60 μl of the membrane suspension, 80 μl of the Wheat Germ Agglutinin coated PVT beads (organic scintillator, Amersham Pharmacia biotech) in a concentration of 0,4 mg and 40 μl of radiolabelled ^125J rhEotaxin (Amersham, IM290) were incubated with 20 μl of the test compound (dissolved in DMSO dilutions) for 2 hours. […] Bound radioactivity was determined by scintillation counter (Micro Beta “Trilux”, Wallac).
Determination of affinity of test compounds (dissociation constant Ki) was calculated by iterative fitting of experimental data using the law of mass action based program “easy sys” (Schittkowski, Num Math 68, 129–142 (1994)).

pKi: −log10 of the molar value. Where a name gives a salt, the structure may show the parent alone.

In general, pKi refers to the Ki on a negative log10 scale, so that one unit is a factor of ten. The term melting point denotes the temperature, or range, at which the solid turns liquid.

In the case of `Fc1ccc(SCCCN2CCC(n3c(CC(F)(F)F)nc4cc(F)ccc43)CC2)cc1` [Example 10, 2-(2,2,2-Trifluoroethyl)-5-fluoro-1-{1-[3-(4-fluoro-phenylsulfanyl)-propyl]-piperidin-4-yl}-1H-benzoimidazole], in series [1], the pKi was 7.72. Same read-out and setting: the value for `Fc1ccc(SCCCN2CCC(n3c(C(F)(F)C(F)(F)F)nc4cc(F)ccc43)CC2)cc1` [Example 6, 2-Pentafluoroethyl-5-fluoro-1-{1-[3-(4-fluoro-phenylsulfanyl)-propyl]-piperidin-4-yl}-1H-benzoimidazole] was 6.96.

Molecule `Fc1ccc(SCCCN2CCC(n3c(C(F)(F)C(F)(F)F)nc4cc(F)ccc43)CC2)cc1` (as salt: hydrochloride) [Example 6, 2-Pentafluoroethyl-5-fluoro-1-{1-[3-(4-fluoro-phenylsulfanyl)-propyl]-piperidin-4-yl}-1H-benzoimidazole] returned a melting point of 208 to 209 °C. As to `Fc1ccc(SCCCN2CCC(n3c(CC(F)(F)F)nc4cc(F)ccc43)CC2)cc1` (as salt: hydrochloride) [Example 10, 2-(2,2,2-Trifluoroethyl)-5-fluoro-1-{1-[3-(4-fluoro-phenylsulfanyl)-propyl]-piperidin-4-yl}-1H-benzoimidazole], the melting point lay in the range of 158 to 160 °C.

Values taken from patent publication US7157471B2, “Haloalkyl- and piperidine-substituted benzimidazole-derivatives” (Boehringer Ingelheim International GmbH, priority 2003, dated 2007).
